Molecules are shown by their SMILES.

As usually defined, the pKa is the negative logarithm of the acid dissociation constant.

This data set is described as follows: pKa of the azo dye. Type of data set: physicochemical. As to conditions: assumes blue color by proton dissociation. From the text: The liquid hair dye composition of the present invention contain, as component (A), an azo dye represented by Formula (A-2) below (HC Blue 18). The pKa of the azo dye (A-2) is 6.0, and assumes blue color by proton dissociation.

With `NS(=O)(=O)c1ccc2nsc(N=Nc3ccc(O)c(Cl)c3)c2c1` [Example A-2, HC Blue 18], the pKa worked out at 6.

The values above are taken from US11077042B2, “Liquid hair dye composition” (KAO CORPORATION, priority 2017, dated 2021).
